Results from ChEMBL document CHEMBL5113401, “Novel 1,3,4-oxadiazole chalcogen analogues: Synthesis and cytotoxic activity” (Eur J Med Chem, 2022).
Activity calls are given as the source filed them. The rule behind the calls is not given here.

Key:
MCF7 = assay: Antiproliferative activity against human MCF7 cells assessed as inhibition of cell growth incubated for 48 hrs by XTT assay; format: functional, cell-based; conditions: MCF7, 48 h
HeLa [1] = assay: Antiproliferative activity against human HeLa cells assessed as inhibition of cell growth incubated for 48 hrs by XTT assay; format: functional, cell-based
PC-3 [2] = assay: Antiproliferative activity against human PC-3 cells assessed as inhibition of cell growth incubated for 48 hrs by XTT assay; format: functional, cell-based; conditions: PC-3, 48 h
HFF-1 = assay: Cytotoxicity against HFF-1 cells assessed as reduction in cell viability at 1 to 2 uM incubated for 48 hrs by XTT assay; format: toxicity, cell-based; conditions: human, hff-1, 48 h, dose 1-2 µM
NB1 = assay: Cytotoxicity against human NB1 cells immortalized with hTERT plasmid assessed as reduction in cell viability at 1 to 2 uM incubated for 48 hrs by XTT assay; format: toxicity, cell-based; conditions: nb1, 48 h, dose 1-2 µM
HeLa [3] = assay: Inhibition of colony formation in human HeLa cells at IC50 incubated for 2 weeks with culture medium replacement for every 3 days by crystal violet staining based analysis; format: functional, cell-based
PC-3 [4] = assay: Inhibition of colony formation in human PC-3 cells at IC50 incubated for 2 weeks with culture medium replacement for every 3 days by crystal violet staining based analysis; format: functional, cell-based
HeLa [5] = assay: Induction of cell cycle arrest in human HeLa cells assessed as accumulation of cells at G1 phase at 1 uM incubated for 6 hrs by FACS flow cytometry analysis (reference value: 69.94 +/- 1.71 %); format: functional
HeLa [6] = assay: Induction of cell cycle arrest in human HeLa cells assessed as accumulation of cells at S phase at 1 uM incubated for 6 hrs by FACS flow cytometry analysis (reference value: 17.41 +/- 0.96 %); format: functional
HeLa [7] = assay: Induction of cell cycle arrest in human HeLa cells assessed as accumulation of cells at G2/M phase at 1 uM incubated for 6 hrs by FACS flow cytometry analysis (reference value: 12.66 +/- 0.88 %); format: functional
HeLa [8] = assay: Induction of cell cycle arrest in human HeLa cells assessed as accumulation of cells at G1 phase at 1 uM incubated for 18 hrs by FACS flow cytometry analysis (reference value: 69.94 +/- 1.25 %); format: functional
HeLa [9] = assay: Induction of cell cycle arrest in human HeLa cells assessed as accumulation of cells at S phase at 1 uM incubated for 18 hrs by FACS flow cytometry analysis (reference value: 17.41 +/- 1.16 %); format: functional
HeLa [10] = assay: Induction of cell cycle arrest in human HeLa cells assessed as accumulation of cells at G2/M phase at 1 uM incubated for 18 hrs by FACS flow cytometry analysis (reference value: 12.66 +/- 0.92 %); format: functional
PC-3 [11] = assay: Induction of cell cycle arrest in human PC-3 cells assessed as accumulation of cells at G1 phase at 1 uM incubated for 6 hrs by FACS flow cytometry analysis (reference value: 44.2 +/- 2.21 %); format: functional
PC-3 [12] = assay: Induction of cell cycle arrest in human PC-3 cells assessed as accumulation of cells at S phase at 1 uM incubated for 6 hrs by FACS flow cytometry analysis (reference value: 35.06 +/- 1.85 %); format: functional
PC-3 [13] = assay: Induction of cell cycle arrest in human PC-3 cells assessed as accumulation of cells at G2/M phase at 1 uM incubated for 6 hrs by FACS flow cytometry analysis (reference value: 20.74 +/- 1.93 %); format: functional
PC-3 [14] = assay: Induction of cell cycle arrest in human PC-3 cells assessed as accumulation of cells at G1 phase at 1 uM incubated for 12 hrs by FACS flow cytometry analysis (reference value: 44.2 +/- 2.01 %); format: functional
PC-3 [15] = assay: Induction of cell cycle arrest in human PC-3 cells assessed as accumulation of cells at S phase at 1 uM incubated for 12 hrs by FACS flow cytometry analysis (reference value: 35.06 +/- 1.36 %); format: functional
PC-3 [16] = assay: Induction of cell cycle arrest in human PC-3 cells assessed as accumulation of cells at G2/M phase at 1 uM incubated for 12 hrs by FACS flow cytometry analysis (reference value: 20.74 +/- 1.95 %); format: functional
HeLa [17] = assay: Induction of cell cycle arrest in human HeLa cells assessed as accumulation of cells at G1 phase at 1 uM incubated for 12 hrs by FACS flow cytometry analysis (reference value: 69.94 %); format: functional
HeLa [18] = assay: Induction of cell cycle arrest in human HeLa cells assessed as accumulation of cells at S phase at 1 uM incubated for 12 hrs by FACS flow cytometry analysis (reference value: 17.41 %); format: functional
HeLa [19] = assay: Induction of cell cycle arrest in human HeLa cells assessed as accumulation of cells at G2/M phase at 1 uM incubated for 12 hrs by FACS flow cytometry analysis (reference value: 12.66 %); format: functional
PC-3 [20] = assay: Induction of cell cycle arrest in human PC-3 cells assessed as accumulation of cells at G1 phase at 1 uM incubated for 18 hrs by FACS flow cytometry analysis (reference value: 44.2 %); format: functional
PC-3 [21] = assay: Induction of cell cycle arrest in human PC-3 cells assessed as accumulation of cells at S phase at 1 uM incubated for 18 hrs by FACS flow cytometry analysis (reference value: 35.06 %); format: functional
PC-3 [22] = assay: Induction of cell cycle arrest in human PC-3 cells assessed as accumulation of cells at G2/M phase at 1 uM incubated for 18 hrs by FACS flow cytometry analysis (reference value: 20.74 %); format: functional
Tubulin (Homo sapiens) [23] = biological target: T1, Tubulin (Homo sapiens) (UniProt P68371+Q9H4B7+P0DPH7+P68366+Q13509+Q71U36+P04350+Q3ZCM7+P07437+P68363+Q9BQE3+Q6PEY2+Q13885+Q9BVA1+Q9BUF5); assay: Inhibition of tubulin polymerization in human HeLa cells assessed as irregular cell morphology at 0.5 uM incubated for 6 hrs by DAPI staining based fluorescence microscopic analysis
Tubulin (Homo sapiens) [24] = biological target: T1, Tubulin (Homo sapiens); assay: Inhibition of tubulin polymerization in human HeLa cells assessed as aberrations in mitotic spindle and nucleus at 0.5 uM incubated for 6 hrs by DAPI staining based fluorescence microscopic analysis; format: cell-based
Tubulin (Homo sapiens) [25] = biological target: T1, Tubulin (Homo sapiens); assay: Inhibition of tubulin polymerization in human HeLa cells assessed as abnormal microtubule network at 0.5 uM incubated for 6 hrs by DAPI staining based fluorescence microscopic analysis; format: cell-based
HeLa [26] = assay: Induction of apoptosis in human HeLa cells assessed as viable cells at 1 uM incubated for 24 hrs by Annexin V-FITC/7-AAD staining based flow cytometric analysis (reference value: 85.6 +/- 1.061%); format: functional; conditions: read-out: Activity
HeLa [27] = assay: Induction of apoptosis in human HeLa cells assessed as early apoptotic cells at 1 uM incubated for 24 hrs by Annexin V-FITC/7-AAD staining based flow cytometric analysis (reference value: 2.7 +/- 0.424 %); format: functional
HeLa [28] = assay: Induction of apoptosis in human HeLa cells assessed as late apoptotic cells at 1 uM incubated for 24 hrs by Annexin V-FITC/7-AAD staining based flow cytometric analysis (reference value: 11.1 +/- 0.778 %); format: functional
HeLa [29] = assay: Induction of apoptosis in human HeLa cells assessed as dead cells at 1 uM incubated for 24 hrs by Annexin V-FITC/7-AAD staining based flow cytometric analysis (reference value: 0.6 +/- 0.707 %); format: functional

In the case of `Cc1[nH]c2c(c1-c1nnc(-c3ccccc3)o1)Cc1ccccc1-2`, the IC50 (MCF7) is reported as 1720 nM, the IC50 (HeLa [1]) is reported as 68 nM and the IC50 (PC-3 [2]) is reported as 1660 nM. The Activity (HFF-1) was “Non-Toxic”, the Activity (NB1) was “Non-Toxic” and the inhibition (HeLa [3]) was “Active”. The inhibition (PC-3 [4]) was “Active”, the Activity (HeLa [5]) was 16.81% and the Activity (HeLa [6]) was 63.32%. It also gave an Activity (HeLa [7]) of 20.86%, an Activity (HeLa [8]) of 1.48% and an Activity (HeLa [9]) of 8.43%. For the same compound, the Activity (HeLa [10]) was 90.18%, the Activity (PC-3 [11]) was 8.34% and the Activity (PC-3 [12]) was 53.05%. It also gave an Activity (PC-3 [13]) of 38.61%, an Activity (PC-3 [14]) of 0% and an Activity (PC-3 [15]) of 18.48%. It also gave an Activity (PC-3 [16]) of 81.52%, an Activity (HeLa [17]) of 3.54% and an Activity (HeLa [18]) of 55.05%. It also gave an Activity (HeLa [19]) of 41.41%, an Activity (PC-3 [20]) of 1.71% and an Activity (PC-3 [21]) of 5.86%. For the same compound, the Activity (PC-3 [22]) was 92.97%, the inhibition (Tubulin (Homo sapiens) [23]) was “Active” and the inhibition (Tubulin (Homo sapiens) [24]) was “Active”. For the same compound, the inhibition (Tubulin (Homo sapiens) [25]) was “Active”, the viability at 1 µM (HeLa [26]) was 62.2% and the Activity (HeLa [27]) was 2.9%. For the same compound, the Activity (HeLa [28]) was 28.5% and the Activity (HeLa [29]) was 6.4%.
